# Laboratory results published in patent publication US11019823B2, “Method of controlling water surface inhabiting pests” (SHA'KED MICROBIAL SOLUTIONS LTD., priority 2013, dated 2021).
# What was measured:
# [1] = system: Culex quinquefasciatus eggs; test: Mosquito egg bioassay in spot plates, probit analysis; type: in vivo
# Description: Mosquito eggs were obtained from the Center for Disease control in Fort Collins, Colo. The eggs were counted and transferred to spot plates containing 8 ml of NaDCC anhydrous solution at 0, 50, 500, 5000, and 50,000 ppm. Each treatment concentration and control (0 ppm) was replicated 3 times within the same spot plate and transferred to an incubator set for 30° C. and 12 hrs of light and dark alterations for 25 hours. […] Larvae were counted as living, hatched dead, or unhatched dead 25 hrs after the bioassay was initiated. Larvae were only counted as hatched if they were completely free from their egg casing. Data were analyzed by probit analysis with the PROBIT Procedure in SAS (Version 9.2, Cary N.C.), producing an LC95 and natural response rate.
# A. aegypti eggs = test: as above; type: in vivo, Aedes aegypti
# Description: A. aegypti eggs were obtained from the Center for Disease control in Fort Collins, Colo. The eggs were counted and transferred to spot plate treatment or control wells, and placed in an incubator. Larvae were counted as living, hatched dead, or unhatched dead 72 hours after the bioassay was initiated. […] The LC95 for A. aegypti was 470 ppm.
# Anopheles stevensi eggs = settings: 72 hrs, 30° C., probit analysis
# Description: Data were analyzed by probit analysis with the PROBIT Procedure in SAS (Version 9.2, Cary N.C.).
# [2] = system: Non-biting midge eggs (Chironomidae: Tanypodinae); settings: a week, 30° C., probit analysis
# Description: Non-biting midge eggs (Chironomidae: Tanypodinae) were obtained from the pond at Town Park, Auburn, Ala. The eggs were counted and transferred to spot plates containing 8 ml of NaDCC anhydrous solution at 0, 50, 500, 5000, and 50,000 ppm. Each treatment and control was replicated 3 times within the same spot plate and transferred to an incubator set for 30° C. and 12 hours of light and dark alterations for a week. Data were analyzed by probit analysis with the PROBIT Procedure in SAS (Version 9.2, Cary N.C.). Larvae were only counted as hatched if they were completely free from their egg casing.
# [3] = system: toxic cyanobacterium Oscillatoria sp.; settings: 1.6 g NaDCC per enclosure of about 270 liter (Example 5)
# [4] = system: cyanobacterium Oscillatoria sp.; settings: 1.2 g NaDCC per enclosure (Example 6)
# [5] = Dissolution study: release of free available chlorine / NaDCC from floating pellets in deionized water (orthotolidine colorimetry, 436 nm); type: physicochemical
# Description: The ability of the pellet to release free available chlorine from the water soluble NaDCC was measured over time using a colorimeric method. Three pellets were selected at random from the kilogram batch that was created. The dimensions and mass of each pellet was recorded and the pellets were added to an 800 ml high density polyethylene (HDPE) beaker filled with deionized water and covered with aluminum foil. NaDCC (0.1975 g) was added to a separate 800 ml plastic beaker as a control. 0.8 ml aliquots of each solution were pipetted into 50 ml volumetic flasks and brought to volume with deionized water. 10 ml aliquots of these diluted solutions were mixed with 100 μl of 0.1% orthotolidine in a vial, forming a clear, yellow solution. The solution was loaded into a cuvette and was analyzed using a Shimadzu UV160U UV-Vis Spectrophotometer at 436 nm.
# Initial sample pulls occurred 15 minutes after the pellets and control sample were added to the water. Additional pulls were taken at about 2, 9, 11, 13, 15, 17, 24, and 36 hours.
# Upon exposure to water, NaDCC breaks down to release free available chlorine that acts as an algae growth inhibitor. Orthotolidine reacts with the chlorine causing a color change allowing for colorimetic analysis to chart the dissolution of the NaDCC. The concentration of NaDCC released at each time point was calculated by constructing a calibration curve relating the free available chlorine response to the initial concentration of NaDCC. The initial concentration of NaDCC calculation is shown in Equation 1. The original aliquot of the control taken at the 15 minute mark was used to create standards ranging from 25-250 ppm. Concentration of initial NaDCC=initial mass of NaDCC/volume of deionized water Equation 1: 197.5 mg/0.800 L=246.9 ppm
# [6] = system: non-motile eggs of the insects; test: Concentrated hypochlorite on insect egg hatching; type: in vivo; settings: 250-500 ppm of concentrated hypochlorite
# From the text: In certain aspects the methods of the present invention target the non-motile eggs of the insects. 250-500 ppm of concentrated hypochlorite caused 95% of egg populations not to hatch.
structure (smiles),measurement,setting,value
"O=c1nc([O-])n(Cl)c(=O)n1Cl.[Na+] [NaDCC anhydrous, Sodium Dichloroisocyanurate (NaDCC) Anhydrous]",state of egg shells,[1]; 5000 ppm treatment,mostly dissolved
same,state of egg shells,"[1]; 50,000 ppm treatment",dissolved and unperceivable
same,LC95,"[1]; 25 hrs, 30° C., probit analysis",93.8 ppm
same,state of egg shells,A. aegypti eggs; 5000 ppm treatment,mostly dissolved
same,state of egg shells,"A. aegypti eggs; 50,000 ppm treatment",dissolved and unperceivable
same,LC95,"A. aegypti eggs; 72 hours, probit analysis",470 ppm
same,LC95,Anopheles stevensi eggs,270 ppm
same,LC95,[2],205.7 ppm
"O=c1nc([O-])n(Cl)c(=O)n1Cl.[Na+] [NaDCC, sodium dichloroisocyanurate]",effect on cyanobacterial infestation,[3],total elimination of the cyanobacterial infestation
same,effect on cyanobacterial infestation,[4],total elimination of the cyanobacterial infestation
same,Concentration of NaDCC released,[5]; 0.25 hours,241.5 ppm
same,Response,"[5]; 0.25 hours, 436 nm, orthotolidine, 800 ml deionized water",2.053 AU
same,Concentration of NaDCC released,[5]; 2.17 hours,228.4 ppm
same,Response,[5]; 2.17 hours,1.941 AU
same,Concentration of NaDCC released,[5]; 9.17 hours,237.9 ppm
same,Response,[5]; 9.17 hours,2.022 AU
same,Concentration of NaDCC released,[5]; 11.00 hours,215.4 ppm
same,Response,[5]; 11.00 hours,1.831 AU
same,Concentration of NaDCC released,[5]; 13.42 hours,238.8 ppm
same,Response,[5]; 13.42 hours,2.030 AU
same,Concentration of NaDCC released,[5]; 15.42 hours,233.9 ppm
same,Response,[5]; 15.42 hours,1.988 AU
same,Concentration of NaDCC released,[5]; 17.67 hours,231.5 ppm
same,Response,[5]; 17.67 hours,1.968 AU
same,Concentration of NaDCC released,[5]; 24.00 hours,217.6 ppm
same,Response,[5]; 24.00 hours,1.850 AU
same,Concentration of NaDCC released,[5]; 36.00 hours,237.1 ppm
same,Response,[5]; 36.00 hours,2.015 AU
OCl [hypochlorite],egg populations not hatching,[6],95%
